From patent publication US20260199426A1, “CYCLIC LIPOPEPTIDE ANTIBIOTIC COMPOUNDS FOR USE IN THE TREATMENT OF PROTEIN AGGREGATION DISEASE” (DEUTSCHES ZENTRUM FÜR NEURODEGENERATIVE ERKRANKUNGEN E. V., priority 2022, published 2026)
*1 amine or outer side, *2 acyl side, *3 side chain or, on linkers, in order; H or OH if unused. Where a SMILES comes first, the peptide text is derived from it. Bridges are numbered along the chain shown (N, C = ends). [ ]: non-standard residue; d: D form. The star is where a group is joined. ξ: configuration not given here. X2 = O=C(C(N[*:1])c1ccc(OC2OC(CO)C(O)C(O)C2OC2OC(CO)C(O)C(O)C2O)cc1)[*:2]; Octa(2Z,4E)dienoyl(7-Me) = CC(C)C/C=C/C=C\C(=O)*; ξPhg(3-Cl-4-OH) = NC(C(=O)O)c1ccc(O)c(Cl)c1; X1 = NC(=O)C(O[*:3])C(N[*:1])C(=O)[*:2]; Hpg = N[CH](C(=O)O)c1ccc(O)cc1; Orn = NCCC[CH](N)C(=O)O

Test system: PS19 mouse model of tauopathy (human MAPT P301S)
Test: Behavior, neuropathology and survival of PS19 mice
Assay type: in vivo
Details: 50, 100, and 150 mg/kg in feed, approximately 8 months

For `CC(C)C/C=C/C=C\C(=O)NC(CC(N)=O)C(=O)NC1C(=O)NC(c2ccc(O)cc2)C(=O)NC(CCCN)C(=O)NC(C(C)O)C(=O)NC(c2ccc(O)cc2)C(=O)NC(c2ccc(O)cc2)C(=O)NC(C(C)O)C(=O)NC(Cc2ccccc2)C(=O)NC(CCCN)C(=O)NC(c2ccc(OC3OC(CO)C(O)C(O)C3OC3OC(CO)C(O)C(O)C3O)cc2)C(=O)NC(C(C)O)C(=O)NC(c2ccc(O)cc2)C(=O)NCC(=O)NC(CC(C)C)C(=O)NC(C)C(=O)NC(c2ccc(O)c(Cl)c2)C(=O)OC1C(N)=O` (centres unmarked) [Ramoplanin A2] ({Octa(2Z,4E)dienoyl(7-Me)}-N[X1][Hpg][Orn]T[Hpg][Hpg]TF[Orn][X2]T[Hpg]GLA[ξPhg(3-Cl-4-OH)]; ester 2-C; configuration not given here), the “cognition, neuropathology, and survival of PS19 mice” value was “positive effect” and the “tau aggregation in PS19 mice” value was “inhibits tau aggregation”.
